Assay results from PubChem BioAssay (NCI).
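Abbreviation: GI50, concentration required for 50% inhibition of growth. TGI: total growth inhibition.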

How the values were obtained:
Assay in all cases: DTP human tumour cell line panel, 384-well format
OVCAR-8 ovarian = system: OVCAR-8 ovarian
NCI/ADR-RES ovarian = system: NCI/ADR-RES ovarian
KM12 colon = system: KM12 colon
BT-549 breast = system: BT-549 breast
DU-145 prostate = system: DU-145 prostate
NCI-H522 lung = system: NCI-H522 lung
SNB-19 CNS = system: SNB-19 CNS
HS 578T breast = system: HS 578T breast
SK-MEL-5 melanoma = system: SK-MEL-5 melanoma
MALME-3M melanoma = system: MALME-3M melanoma
HCC-2998 colon = system: HCC-2998 colon
MOLT-4 leukemia = system: MOLT-4 leukemia
COLO 205 colon = system: COLO 205 colon
SNB-75 CNS = system: SNB-75 CNS
CCRF-CEM leukemia = system: CCRF-CEM leukemia
NCI-H23 lung = system: NCI-H23 lung
A549 NSCLC = system: A549 NSCLC
IGROV1 ovarian = system: IGROV1 ovarian
SF-295 CNS = system: SF-295 CNS
TK-10 renal = system: TK-10 renal
SN12C renal = system: SN12C renal
MDA-MB-468 breast = system: MDA-MB-468 breast
HL-60(TB) leukemia = system: HL-60(TB) leukemia
SW-620 colon = system: SW-620 colon
ACHN renal = system: ACHN renal
NCI-H226 lung = system: NCI-H226 lung
HCT-15 colon = system: HCT-15 colon
HCT-116 colon = system: HCT-116 colon
SF-539 CNS = system: SF-539 CNS
EKVX NSCLC = system: EKVX NSCLC
OVCAR-3 ovarian = system: OVCAR-3 ovarian
NCI-H322M lung = system: NCI-H322M lung
786-0 renal = system: 786-0 renal
K-562 leukemia = system: K-562 leukemia
RXF 393 renal = system: RXF 393 renal
M14 melanoma = system: M14 melanoma
HT29 colon = system: HT29 colon
UACC-257 melanoma = system: UACC-257 melanoma
CAKI-1 renal = system: CAKI-1 renal
MCF7 breast = system: MCF7 breast
A498 renal = system: A498 renal
PC-3 prostate = system: PC-3 prostate
SF-268 CNS = system: SF-268 CNS
SK-MEL-2 melanoma = system: SK-MEL-2 melanoma
NCI-H460 NSCLC = system: NCI-H460 NSCLC
SK-OV-3 ovarian = system: SK-OV-3 ovarian
RPMI-8226 leukemia = system: RPMI-8226 leukemia
U251 glioblastoma = system: U251 glioblastoma
MDA-MB-435 melanoma = system: MDA-MB-435 melanoma
SK-MEL-28 melanoma = system: SK-MEL-28 melanoma
UACC-62 melanoma = system: UACC-62 melanoma
LOX IMVI melanoma = system: LOX IMVI melanoma
HOP-92 NSCLC = system: HOP-92 NSCLC
HOP-62 NSCLC = system: HOP-62 NSCLC
OVCAR-4 ovarian = system: OVCAR-4 ovarian

In the case of C=C(c1ccc(N(C)C)cc1)c1ccc(N(C)C)cc1, the GI50 (OVCAR-8 ovarian) is reported as 2.39 µM, the TGI (OVCAR-8 ovarian) is reported as 5.17 µM and the GI50 (NCI/ADR-RES ovarian) is reported as 1.43 µM. It also gave a TGI (NCI/ADR-RES ovarian) of 3.12 µM, a GI50 (KM12 colon) of 1.94 µM and a TGI (KM12 colon) of 55.4 µM. For the same compound, the GI50 (BT-549 breast) was 1.49 µM, the TGI (BT-549 breast) was 4.15 µM and the GI50 (DU-145 prostate) was 2.66 µM. It also gave a TGI (DU-145 prostate) of 8.38 µM, a GI50 (NCI-H522 lung) of 0.628 µM and a TGI (NCI-H522 lung) of 2.17 µM. The GI50 (SNB-19 CNS) was 2.92 µM, the TGI (SNB-19 CNS) was 20.5 µM and the GI50 (HS 578T breast) was 1.69 µM. The TGI (HS 578T breast) was 3.53 µM, the GI50 (SK-MEL-5 melanoma) was 1.36 µM and the TGI (SK-MEL-5 melanoma) was 3.4 µM. The GI50 (MALME-3M melanoma) was 1.65 µM, the TGI (MALME-3M melanoma) was 6.03 µM and the GI50 (HCC-2998 colon) was 1.12 µM. For the same compound, the TGI (HCC-2998 colon) was 4.84 µM, the GI50 (MOLT-4 leukemia) was 0.301 µM and the TGI (MOLT-4 leukemia) was 1.22 µM. The GI50 (COLO 205 colon) was 2.78 µM, the TGI (COLO 205 colon) was 7.77 µM and the GI50 (SNB-75 CNS) was 1.25 µM. For the same compound, the TGI (SNB-75 CNS) was 5.15 µM, the GI50 (CCRF-CEM leukemia) was 1.35 µM and the TGI (CCRF-CEM leukemia) was 2.68 µM. For the same compound, the GI50 (NCI-H23 lung) was 1.75 µM, the TGI (NCI-H23 lung) was 4.13 µM and the GI50 (A549 NSCLC) was 4.11 µM. For the same compound, the TGI (A549 NSCLC) was 28.9 µM, the GI50 (IGROV1 ovarian) was 2.36 µM and the TGI (IGROV1 ovarian) was 9.03 µM. For the same compound, the GI50 (SF-295 CNS) was 2.17 µM, the TGI (SF-295 CNS) was 5.44 µM and the GI50 (TK-10 renal) was 2.25 µM. The TGI (TK-10 renal) was 9.09 µM, the GI50 (SN12C renal) was 3.69 µM and the TGI (SN12C renal) was 72.6 µM. The GI50 (MDA-MB-468 breast) was 0.142 µM, the TGI (MDA-MB-468 breast) was 0.822 µM and the GI50 (HL-60(TB) leukemia) was 0.382 µM. It also gave a TGI (HL-60(TB) leukemia) of 1.87 µM, a GI50 (SW-620 colon) of 1.15 µM and a TGI (SW-620 colon) of 4.26 µM. It also gave a GI50 (ACHN renal) of 4.16 µM, a TGI (ACHN renal) greater than 100 µM and a GI50 (NCI-H226 lung) of 4.29 µM. For the same compound, the TGI (NCI-H226 lung) was 26.7 µM, the GI50 (HCT-15 colon) was 0.373 µM and the TGI (HCT-15 colon) was 10.3 µM. For the same compound, the GI50 (HCT-116 colon) was 2.45 µM, the TGI (HCT-116 colon) was 13.1 µM and the GI50 (SF-539 CNS) was 1.79 µM. For the same compound, the TGI (SF-539 CNS) was 4.12 µM, the GI50 (EKVX NSCLC) was 3.38 µM and the TGI (EKVX NSCLC) was 15.3 µM. For the same compound, the GI50 (OVCAR-3 ovarian) was 1.41 µM, the TGI (OVCAR-3 ovarian) was 3.1 µM and the GI50 (NCI-H322M lung) was 5.48 µM. The TGI (NCI-H322M lung) was 29.1 µM, the GI50 ([…]-0 renal) was 2.51 µM and the TGI (786-0 renal) was 8.96 µM. For the same compound, the GI50 (K-562 leukemia) was 1.91 µM, the TGI (K-562 leukemia) was 5.35 µM and the GI50 (RXF 393 renal) was 1.33 µM. For the same compound, the TGI (RXF 393 renal) was 3.48 µM, the GI50 (M14 melanoma) was 1.39 µM and the TGI (M14 melanoma) was 3.16 µM. For the same compound, the GI50 (HT29 colon) was 1.87 µM, the TGI (HT29 colon) was 4.79 µM and the GI50 (UACC-257 melanoma) was 3.31 µM. The TGI (UACC-257 melanoma) was 19.7 µM, the GI50 (CAKI-1 renal) was 2.57 µM and the TGI (CAKI-1 renal) was 22.1 µM. It also gave a GI50 (MCF7 breast) of 2.16 µM, a TGI (MCF7 breast) of 8.52 µM and a GI50 (A498 renal) of 2.1 µM. For the same compound, the TGI (A498 renal) was 7.73 µM, the GI50 (PC-3 prostate) was 3.1 µM and the TGI (PC-3 prostate) was 16.1 µM. The GI50 (SF-268 CNS) was 3.27 µM, the TGI (SF-268 CNS) was 15 µM and the GI50 (SK-MEL-2 melanoma) was 0.48 µM. It also gave a TGI (SK-MEL-2 melanoma) of 1.9 µM, a GI50 (NCI-H460 NSCLC) of 2.28 µM and a TGI (NCI-H460 NSCLC) of 5.15 µM. For the same compound, the GI50 (SK-OV-3 ovarian) was 2.42 µM, the TGI (SK-OV-3 ovarian) was 15.1 µM and the GI50 (RPMI-8226 leukemia) was 1.51 µM. For the same compound, the TGI (RPMI-8226 leukemia) was 2.89 µM, the GI50 (U251 glioblastoma) was 3.48 µM and the TGI (U251 glioblastoma) was 14.4 µM. For the same compound, the GI50 (MDA-MB-435 melanoma) was 0.28 µM, the TGI (MDA-MB-435 melanoma) was 1.06 µM and the GI50 (SK-MEL-28 melanoma) was 2.59 µM. The TGI (SK-MEL-28 melanoma) was 7.79 µM, the GI50 (UACC-62 melanoma) was 1.52 µM and the TGI (UACC-62 melanoma) was 7.92 µM. The GI50 (LOX IMVI melanoma) was 1.91 µM, the TGI (LOX IMVI melanoma) was 21.1 µM and the GI50 (HOP-92 NSCLC) was 2.45 µM. The TGI (HOP-92 NSCLC) was 8.34 µM, the GI50 (HOP-62 NSCLC) was 2.2 µM and the TGI (HOP-62 NSCLC) was 7.98 µM. It also gave a GI50 (OVCAR-4 ovarian) of 2.09 µM and a TGI (OVCAR-4 ovarian) of 9.56 µM.
